From publication PMC12024191, “Pharmacological and Molecular Docking Investigation of Leaves of Eriobotrya japonica: Antioxidant, Enzyme Inhibition, and Anti-Inflammatory Effects” (Antioxidants, 2025)
Where two headings read alike, the source gives them in different places.

Columns and labels:
[1] = molecular target: T1, acetylcholinesterase (AChE) (Electrophorus electricus, UniProt O42275); experiment: biochemical
T1 construct: purchased Sigma-Aldrich
Method: The AChE inhibition was carried out based on the previous method. The sodium phosphate buffer (pH 8.0, 0.1 M, 140 μL), DTNB (10 μL), tested sample (20 μL), and AChE solution (15 μL) were mixed in a 96-well plate. After incubating at room temperature for 10 min, the absorbance was measured at 405 nm. The inhibitory effect was calculated by the following equation. Acetylcholinesterase inhibition (%) = (Acontrol − Asample)/Acontrol × 100% where Asample and Acontrol represent the absorbance values of the tested sample and control, respectively.

[2] = Radical scavenging activity of ABTS; conditions: for EC50: isolated components (Table 4), read-out: SC50 ABTS
Method: According to the method reported in [49], ABTS solution (28 mM) was mixed with potassium permanganate solution (9.6 mM) in an equal ratio (v/v = 1:1) and allowed to react at room temperature in the dark for 16 h to generate the ABTS radical solution. The ABTS radical solution was then diluted with EtOH until the absorbance reached 0.70 ± 0.02 at 740 nm. The tested samples were subsequently diluted to the desired concentrations with EtOH. In a 96-well plate, the ABTS radical solution (190 μL) was mixed with the sample solution (10 μL) and was allowed to react at room temperature for 6 min in the dark. The absorbance was then measured at 740 nm using an ELISA reader. The scavenging activity was calculated using the following equation. Scavenging rate (%) = (Acontrol − Asample)/Acontrol × 100% where Acontrol was the absorbance of the control and Asample was that of the tested sample.

[3] = test system: NO production of LPS-induced RAW264.7 cells; experiment: LPS-induced NO inhibition assay (Griess); assay type: cell-based, Murine; conditions: Mus musculus, read-out: NO inhibition IC50
Method: LPS-induced NO production of RAW264.7 cells was determined by Griess assay. The 100 μL quantity of cells was seeded in 96-well plates at an amount of 5 × 10^4 cells/well and incubated for 24 h. The cells were then treated with 100 ng/mL LPS with vehicle or different concentrations of the tested sample for 24 h. […] The absorbance was measured at 540 nm to calculate the NO inhibition. Sodium nitrite was used to generate a standard curve.

[4] = Ferric reducing antioxidant power (FRAP)
Method: According to the previously published methods, acetate buffer (pH 3.6), FeCl3 solution (20 mM), and 10 m TPTZ solution (prepared in 40 mM HCl) were mixed in a ratio of 10:1:1 to generate the FRAP working solution. Then, the working solution was warmed to 37 °C before being used. The diluted sample, blank, or standard solution (100 µL) was mixed with the warm-up working solution (900 µL) and incubated for 40 min in a dry bath at 37 °C. The absorbance at 593 nm was measured using an ELISA reader. The standard curve was linear from 0 to 100 mM Trolox, and the data were expressed as mM TE/g dry weight.

[5] = Radical scavenging activity of DPPH; conditions: for EC50: isolated components (Table 4), read-out: SC50 DPPH
Method: According to the method reported in [48], a DPPH radical solution (400 μM) was prepared in EtOH. The tested samples were diluted to the desired concentrations with EtOH. In a 96-well plate, diluted tested sample solution (100 μL) was mixed with 100 μL of the DPPH radical solution (200 μM). The mixture was allowed to react at room temperature for 30 min in the dark. After the reaction, the absorbance at 520 nm was measured using an ELISA reader (TECAN Sunrise, Männedorf, Schweiz). The scavenging activity was calculated using the following equation. Scavenging rate (%) = (Acontrol − Asample)/Acontrol × 100% where Acontrol was the absorbance of the control and Asample was that of the tested sample.

[6] = Radical scavenging activity of superoxide; conditions: for EC50: isolated components (Table 4), read-out: SC50 Superoxide
Method: According to a previously reported procedure, the superoxide radical solution was prepared in Tris-HCl buffer (16 mM, pH 8.0) containing 300 µM NBT (50 µL), 120 µM PMS (50 µL), and tested sample solution (50 µL). […] The absorbance at 560 nm was measured using an ELISA reader, and the scavenging activity was calculated by the following equation. Scavenging rate (%) = (Acontrol − Asample)/Acontrol × 100% where Acontrol was the absorbance of the control and Asample was that of the tested sample.

[7] = test system: iNOS expression in LPS-stimulated RAW264.7 cells; experiment: Western blot analysis of iNOS expression; assay type: cell-based, Murine; conditions: compared to the LPS group (100 ng/mL LPS)
[8] = molecular target: T2, α-glucosidase (Saccharomyces cerevisiae, UniProt P53341); experiment: Enzyme inhibition assay of α-glucosidase; assay type: biochemical, S. cerevisiae
T2 construct: purchased Sigma-Aldrich
Method: The inhibitory activity of α-glucosidase was determined based on the previously reported method. The α-glucosidase solution was prepared with sodium phosphate buffer (pH 6.8, 0.1 M) and diluted to 1 U/mL. Subsequently, the tested sample solution (100 µL), diluted α-glucosidase solution (20 µL), and 0.53 mM p-NPG (380 µL) were mixed and incubated at 37 °C for 40 min. […] The activity was calculated by the following equation. α-Glucosidase inhibition (%) = (Acontrol − Asample)/Acontrol × 100% where Asample and Acontrol represent the absorbance values of the tested sample and control, respectively.

[9] = isolated components (Table 4), mM Trolox equivalents per g
[10] = 100 ng/mL LPS, 24 h, RAW264.7 cells
[11] = solvent extracts, concentration causing 50% free radical scavenging

T2 sequence (P53341 whole entry): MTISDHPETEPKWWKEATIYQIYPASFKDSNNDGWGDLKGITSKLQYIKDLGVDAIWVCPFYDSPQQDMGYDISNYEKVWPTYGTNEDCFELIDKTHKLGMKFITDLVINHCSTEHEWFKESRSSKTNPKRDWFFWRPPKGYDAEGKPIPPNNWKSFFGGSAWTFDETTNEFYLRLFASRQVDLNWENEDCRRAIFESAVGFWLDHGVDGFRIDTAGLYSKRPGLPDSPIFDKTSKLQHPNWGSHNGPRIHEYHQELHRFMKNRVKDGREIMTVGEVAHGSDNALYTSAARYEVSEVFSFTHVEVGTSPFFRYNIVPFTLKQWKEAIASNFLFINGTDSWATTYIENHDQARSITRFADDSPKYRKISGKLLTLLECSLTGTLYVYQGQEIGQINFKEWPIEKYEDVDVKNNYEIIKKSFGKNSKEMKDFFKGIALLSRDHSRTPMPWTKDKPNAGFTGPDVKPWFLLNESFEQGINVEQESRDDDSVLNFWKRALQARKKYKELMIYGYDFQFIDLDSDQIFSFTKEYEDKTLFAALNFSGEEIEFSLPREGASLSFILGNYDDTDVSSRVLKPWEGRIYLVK
T1 sequence (O42275 24-633): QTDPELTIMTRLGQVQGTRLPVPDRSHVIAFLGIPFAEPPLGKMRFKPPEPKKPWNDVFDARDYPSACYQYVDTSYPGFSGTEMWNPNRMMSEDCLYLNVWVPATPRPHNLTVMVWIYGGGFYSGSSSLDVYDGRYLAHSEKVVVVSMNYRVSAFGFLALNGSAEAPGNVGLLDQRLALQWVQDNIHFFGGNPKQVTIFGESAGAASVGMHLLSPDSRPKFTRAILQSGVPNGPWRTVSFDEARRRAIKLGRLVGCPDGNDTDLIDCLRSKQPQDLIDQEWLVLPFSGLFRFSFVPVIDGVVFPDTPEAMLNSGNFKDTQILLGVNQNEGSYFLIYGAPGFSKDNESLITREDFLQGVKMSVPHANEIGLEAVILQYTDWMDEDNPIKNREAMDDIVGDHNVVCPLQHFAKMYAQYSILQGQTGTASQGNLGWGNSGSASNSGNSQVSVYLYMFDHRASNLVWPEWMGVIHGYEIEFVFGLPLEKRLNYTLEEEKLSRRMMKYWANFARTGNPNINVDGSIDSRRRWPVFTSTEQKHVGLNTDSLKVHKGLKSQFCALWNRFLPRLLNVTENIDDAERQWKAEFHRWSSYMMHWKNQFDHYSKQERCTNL

| Compound | IC50 ([1]; isolated components (Table 5)) [µM] | EC50 [2] [µM] | TE FRAP [4, 9] | EC50 [5] [µM] | EC50 [6] [µM] | IC50 [3, 10] [µM] | also measured |
| --- | --- | --- | --- | --- | --- | --- | --- |
| C[C@@H]1O[C@@H](OC[C@H]2O[C@@H](Oc3c(-c4ccc(O)c(O)c4)oc4cc(O)cc(O)c4c3=O)[C@H](O)[C@@H](O)[C@@H]2O)[C@H](O)[C@H](O)[C@H]1O [Rutin (6), rutin] | 452 ± 12.9 | 20 ± 0.3 | 1609.10 ± 25.67 ^A mM/g | 66.3 ± 1.68 | 6.69 ± 0.25 |  | IC50 ([3]; RAW264.7, 24 h): 29.5 ± 1.19 µM |
| C[C@H]1[C@H](C)CC[C@]2(C(=O)O)CC[C@]3(C)C(=CC[C@@H]4[C@@]5(C)CC[C@H](O)C(C)(C)[C@@H]5CC[C@]43C)[C@H]12 [Ursolic acid (2), ursolic acid] | 311 ± 7.31 |  |  |  |  | 20.2 ± 1.46 | Inhibition of iNOS expression ([7]; 10 μM): 26.7%; Inhibition of iNOS expression ([7]; 20 μM): 68.1% |
| C[C@H]1[C@H](C)CC[C@]2(C(=O)O)CC[C@]3(C)C(=CC[C@@H]4[C@@]5(C)C[C@@H](O)[C@H](O)C(C)(C)[C@@H]5CC[C@]43C)[C@H]12 [Corosolic acid (3), corosolic acid] | 283 ± 17 | > 400 | <1 mM/g | > 400 | > 400 |  | IC50 ([8]; isolated components (Table 5), read-out: IC50 α-Glucosidase): 13.8 ± 2.11 µM |
| O=c1cc(-c2ccc(O)c(O)c2)oc2cc(O[C@@H]3O[C@H](CO)[C@@H](O)[C@H](O)[C@H]3O)cc(O)c12 [Cynaroside, cynaroside, reference compound] |  |  |  |  | 38.3 ± 0.69 |  | SC50 Superoxide [6, 11]: 13.41 ± 2.56 ^A μg/mL |
| CC1CCC2(C(=O)O)CCC3(C)C(=CCC4C5(C)CC(O)C(O)C(C)(C)C5CCC43C)C2C1(C)O (stereo not shown) [Tormentic acid (4), tormentic acid] | 281 ± 8.55 | > 400 | <1 mM/g | > 400 | > 400 | > 50 | IC50 [8]: 320 ± 26.1 µM |
| Cc1cc(C(C)(C)C)c(O)c(C(C)(C)C)c1 [BHT, reference compound] |  | 25.87 ± 0.01 | 3082.65 ± 213.69 ^B mM/g | 881 ± 70.4 |  |  | SC50 ABTS [2, 11]: 29.95± 1.04 ^A μg/mL; TE FRAP ([4]; solvent extracts (Table 2), mM Trolox equivalents per gram): 3370.27 ± 256.53 ^D mM/g; SC50 DPPH [5, 11]: 230.05 ± 25.40 ^AB μg/mL |
| Oc1cc(O)c2c(c1)O[C@H](c1ccc(O)c(O)c1)[C@H](O)C2 [Epicatechin (5), epicatechin] | 405 ± 26.3 | 7.83 ± 0.34 | 1694.43 ± 21.45 ^A mM/g | 56.9 ± 0.91 | 210 ± 9.46 | > 50 | IC50 [8]: > 800 µM |
| CC1(C)CC[C@]2(C(=O)O)CC[C@]3(C)C(=CC[C@@H]4[C@@]5(C)CC[C@H](O)C(C)(C)[C@@H]5CC[C@]43C)[C@@H]2C1 [Oleanolic acid (1), oleanolic acid] |  | > 400 | <1 mM/g | > 400 | > 400 |  | IC50 ([3]; RAW264.7, 24 h): > 50 µM |
| O=c1c(O)c(-c2ccc(O)c(O)c2)oc2cc(O)cc(O)c12 [Quercetin, quercetin, reference compound] |  |  |  |  |  | 17.1 ± 1.63 |  |
| O=C(/C=C/c1ccc(O)c(O)c1)O[C@@H]1C[C@](O)(C(=O)O)C[C@@H](O)[C@H]1O [Chlorogenic acid, chlorogenic acid, reference compound] | 320 ± 4.13 |  |  |  |  |  | IC50 ([1]; solvent extracts (Table 3)): 386 µM |
